Test results published in patent US6476039B1, “Ophthalmic composition” (R-Tech Ueno, Ltd., priority 1998, dated 2002).

Assays:
Type in all cases: in vivo, rabbit
[1] = system: normal (not diabetic) rabbits; assay: Repair of the wound of keratoepithelial detachment in normal rabbits; settings: 0.2% eye drops, 30 μL/eye every 4 hours, area immediately after detachment = 100
Description: In the Experimental Example 1, the influence in rabbits with alloxan-induced diabetes was investigated, while the influence in normal (not diabetic) rabbits was investigated in this Example.
Ten-week-old male New Zealand White rabbits (weighing 2.07±0.11 kg: mean weight at the start of the experiment) were acclimation period for 7 days, while the animals were examined for the general signs including diarrhea and body weight, etc., and the anterior ocular segment was also observed. Only animals without any abnormality were used in the experiment.
Keratoepithelial detachment wounds were prepared as described in the Experimental Example 1.
The test substance was instilled every 4 hours after the keratoepithelial detachment (the first instillation was made immediately after preparation of the wound of keratoepithelial detachment).
Twelve hours after the keratoepithelial detachment, the area of the wound was measured, and its relative value was calculated by taking the area of the wound immediately after the keratoepithelial detachment as 100, and the relative value was used to assess the extent of repair. The area of the wound of keratoepithelial detachment was measured as described in the Experimental Example 1. […]

[2] = system: alloxan-induced diabetic rabbits; assay: Examination of corneal esthesia (Cochet-Bonnet esthesiometer) in alloxan-induced diabetic rabbits
Description: (§1) Alloxan monohydrate (Lot No. DLJ5619, M.W. 160.09 Wako Pure Chemical Industries, LTD.) of 80 mg/kg was dissolved in 2 mL of physiological saline, and the solution was administered once intravenously of male Japanese albino rabbits [Std: JW/CSK] (11-week-old) to induce diabetes.
(§2) Blood glucose was determined once a week on 4 times after administration of alloxan monohydrate: animals having always blood glucose of 300 mg/dL or more were used as diabetic animals in this Experiment.
(§3) [3-(4-Bromo-2-fluorobenzyl)-7-chloro-2,4-dioxo- 1,2,3,4-tetrahydroquinazolin- 1-yl]acetate, an active ingredient of this invention, having aldose reductase-inhibiting effect was used for preparation of a 0.3% eye drops, and the eye drops were used as the test substance. The vehicle control was the vehicle of the eye drops simply without the active ingredient.
At the time of intravenous administration of alloxan, the drug was instilled into both eyes at 30 μL/eye four times a day over 4 consecutive weeks. Sixteen eyes of 8 animals in each of the test substance group and the vehicle control group were subjected to the examination of corneal esthesia and the examination of tear secretion as follows.
One hour after the second instillation on the day of examination, each animal was fixed in a stainless steel fixator (SHIBATA GLASS WORKS). The central part, the most sensitive part, of the cornea was stimulated 10 times in rapid sequence with a pressure by applying at the right angle a 30 mm nylon thread (Toray Nylon Monofilament, Type 100, No.0.6, diameter φ: 0.027mm, cross section s: 0.0129) of the Cochet-Bonnet type esthesiometer (Handaya Co., Ltd.) so that the nylon thread might be bent only slightly (pressure: […], measured by Handaya), and the number of blink reflex was taken as the corneal esthesia value. The examination was performed before, 2 weeks after and 4 weeks after administration of alloxan.
In both examinations, the test substance group and the vehicle control group were compared with the Williams's test.

[3] = system: alloxan-induced diabetic rabbits; assay: Examination of tear secretion (Schirmer's test) in alloxan-induced diabetic rabbits; settings: 1 minute
Description: as §1, §2, §3
At the time of intravenous administration of alloxan, the drug was instilled into both eyes at 30 μL/eye four times a day over 4 consecutive weeks. […]
One hour after the second instillation on the day of examination, each animal was fixed in a stainless steel fixator, and the edge of the Schirmer's test paper (SHOWA YAKUHIN KAKO, Co., Ltd., Lot No.70080) was inserted into the conjunctival sac to cover the ⅓ of the lower eyelid on the ear side. One minute after, the paper was removed, and the length of the moistened part was read from the scale on the paper. […]

[4] = system: alloxan-induced diabetic rabbits; assay: Repair of the wound of keratoepithelial detachment in alloxan-induced diabetic rabbits; settings: 0.1% eye drop, 30 μL/eye every 4 hours, area immediately after detachment = 100, mean±S.E.
Description: Alloxan monohydrate (Lot No. DLJ5619, M.W. 160.09: Wako Pure Chemical Industries, LTD.) of 80 mg/kg was dissolved in 2 mL of physiological saline, and the solution was administered once intravenously of male Japanese albino rabbits [Std: JW/CSK] (11-week-old) to induce diabetes.
Blood glucose was determined weekly after administration of alloxan monohydrate: the mean blood glucose was increased from 142.2±4.7 mg/dL (mean±S.E.; The same is applicable hereinafter.) before administration to 522.5±13.7 mg/dL at 1 week, and this elevated level persisted thereafter. Animals with this alloxan-induced diabetes were used in the experiment. […]
The cornea was stained with fluorescein, and photographs of the anterior ocular segment were taken with the Medical Nikkor Lens attached with a yellow filter (Kodak WRATTEN No.12) and the front part of the flash attached with a blue filter (Kodak WRATTEN No.47). On the projected photographs magnified to the same degree, the stained area was measured with the planimeter. […]
Twelve hours after the keratoepithelial detachment, the area of the wound was measured. Then its relative value was calculated by taking the area of the wound immediately after the keratoepithelial detachment as 100. […]

[5] = system: rabbits with dry eye syndrome induced by trigeminal denervation; assay: Basal tear secretion in rabbits with dry eye syndrome induced by trigeminal denervation
Description: (§4) Twenty male Japanese albino rabbits [Std:JW/CSK] were used.
(§5) Urethane (ALDRICH, Lot No.069110Q) was intraperitoneally administered at the dose of 1 g/kg to rabbits of which hair at the head after anesthesia had been shaved.
(§6) After disinfection of the shaved area, midline incision of the skin was made from the frontal bone to the ear root, and the periosteum and the muscular tissue around the temporal bone and mandibular articular process were detached. After the detachment, a hole of 2×1.5 cm in size was made in the bone from the parietal medial region to the temporal region by using a bone drill (URAWA KOGYO Co., Ltd., MINITOR.C-130) under the surgical microscope (KONAN CAMERA R& I Inc., PMO-50). Then the dura was detached from the cranial bone while cotton was kept inserted between the temporal bone and the dura. After the detachment was made up to the cranial base, detachment was further made toward the medial border of the petrous part of temporal bone in the cranial cavity, to find the trigeminal nerve in the petrous part. Then the dura of about 1 to 2 mm on the nasal side of the semilunar ganglion was incised. After the incision, the two branches of nerve fascicle, i.e. the first branch of the trigeminal nerve (ocular nerve) and the second branch (maxillary nerve), were pulled laterally and cut with corneoscleral scissors. After confirmation of miosis of the ipsilateral eye immediately after the cut, the cotton kept inserted was removed, and the skin at the head was closed with suture. After the operation, an antibiotic (MYCILLIN SOL®: Meiji) was administered intramuscularly at the dose of 0.1 mL/kg.
(§7) The trigeminal denervation was made only on the left eye side, while the trigeminal denervation on the right eye side or sham operation was not made
(§8) Two-week acclimation period was allowed to pass after the trigeminal denervation.
as §3, with “of 0.03% eye drop, 0.1% eye drop, and” for “of a”, “eye drop, which” for “eye drops, and the eye drops”, “test substances.” for “test substance.”, “the base” for “the vehicle”
(§9) From about 2 weeks after the trigeminal denervation, one of the above-mentioned drugs was instilled at the volume of 30 μL/eye four times a day for 2 consecutive weeks. Five eyes of each of the test substance groups and the control group were examined for the basal tear secretion and the keratoepithelial lesion as follows.
Before the start of instillation (Week 0), and 1 week and 2 weeks after instillation, the basal tear secretion was measured one hour after the second instillation on the day of examination.
Keratoconjunctiva was anesthetized by instillation of 4% lidocaine (Xylocaine® 4% for ophthalmology: Fujisawa Pharmaceutical Co., Ltd.), and the eye drop and the tear around the eyelid were wiped off about 5 minutes later.
When loss of keratoconjunctival esthesia was confirmed with the Cochet-Bonnet type esthesiometer, the edge of the Shirmer's test paper was kept inserted into the conjunctival sac for 5 minutes, and the length of the moistened part was read from the scale on the paper.
The basal tear secretion was expressed by the mean per minute calculated from the 4-minute-value obtained by subtraction of the first-1-minute-value from the 5-minute-value of the Shirmer's test, so that the volume of the tear considered to be retained in the conjunctival sac might be excluded.

[6] = system: rabbits with dry eye syndrome induced by trigeminal denervation; assay: Keratoepithelial lesion score in rabbits with dry eye syndrome induced by trigeminal denervation
Description: as §4, §5, §6, §7, §8
as §3, with “of 0.03% eye drop, 0.1% eye drop, and” for “of a”, “eye drop, which” for “eye drops, and the eye drops”, “test substances.” for “test substance.”, “the base” for “the vehicle”
as §9
Before the start of instillation (Week 0), and 1 week and 2 weeks after instillation, the lesion was evaluated one hour after the first instillation on the day of examination.
Each animal was placed in a stainless steel fixator, and given instillation of 50 μL of the mixture of 1% rose bengal and 1% fluorescein, followed by vital staining of the keratoconjunctival epithelium for evaluation of the extent of lesion according to the scoring system shown in Table 5.

[7] = after 4 weeks, 0.3% eye drops, 30 μL/eye four times a day
[8] = before alloxan (baseline), 0.3% eye drops group

O=C(O)Cn1c(=O)n(Cc2ccc(Br)cc2F)c(=O)c2ccc(Cl)cc21 [compound of the formula (II), [3-(4-bromo-2-fluorobenzyl)-7-chloro-2,4-dioxo-1,2,3,4-tetrahydroquinazolin-1-yl]acetate]
Relative area of wound of keratoepithelial detachment 12 hours after keratoepithelial detachment [1]: 80.8 ± 2.0 % | Corneal esthesia value (number of blink reflex on 10 stimulations) ([2]; after 2 weeks, 0.3% eye drops, 30 μL/eye four times a day): 5.3 ± 0.7 number of times | Corneal esthesia value (number of blink reflex on 10 stimulations) [2, 7]: 5.1 ± 0.6 number of times | Corneal esthesia value (number of blink reflex on 10 stimulations) [2, 8]: 5.6 ± 0.3 number of times | tear secretion (Schirmer's test) [3, 7]: 7.1 ± 0.4 mm | tear secretion (Schirmer's test) [3, 8]: 8.3 ± 0.6 mm | Relative area of wound of keratoepithelial detachment 12 hours after keratoepithelial detachment [4]: 89.0 ± 2.7 % | Basal tear secretion ([5]; 0.03% eye drop group, before instillation (baseline)): 0.38 ± 0.09 mm/minute | Basal tear secretion ([5]; 0.03% eye drop, 30 μL/eye four times a day, week 1): 0.92 ± 0.17 mm/minute | Basal tear secretion ([5]; 0.03% eye drop, 30 μL/eye four times a day, week 2): 1.02 ± 0.09 mm/minute | Basal tear secretion ([5]; 0.1% eye drop group, before instillation (baseline)): 0.38 ± 0.13 mm/minute | Basal tear secretion ([5]; 0.1% eye drop, 30 μL/eye four times a day, week 1): 1.24 ± 0.14 mm/minute | Basal tear secretion ([5]; 0.1% eye drop, 30 μL/eye four times a day, week 2): 1.12 ± 0.11 mm/minute | Basal tear secretion ([5]; 0.3% eye drop group, before instillation (baseline)): 0.34 ± 0.10 mm/minute | Basal tear secretion ([5]; 0.3% eye drop, 30 μL/eye four times a day, week 1): 1.24 ± 0.16 mm/minute | Basal tear secretion ([5]; 0.3% eye drop, 30 μL/eye four times a day, week 2): 1.20 ± 0.15 mm/minute | Keratoepithelial lesion ([6]; 0.03% eye drop group, before instillation (baseline), score 0-4 by stained area (Table 5)): 2.8 ± 0.4 score | Keratoepithelial lesion ([6]; 0.03% eye drop, four times a day, week 1, score 0-4 (Table 5)): 0.5 ± 0.4 score | Keratoepithelial lesion ([6]; 0.03% eye drop, four times a day, week 2, score 0-4 (Table 5)): 0.2 ± 0.1 score | Keratoepithelial lesion ([6]; 0.1% eye drop group, before instillation (baseline), score 0-4 (Table 5)): 3.0 ± 0.6 score | Keratoepithelial lesion ([6]; 0.1% eye drop, four times a day, week 1, score 0-4 (Table 5)): 0.4 ± 0.2 score | Keratoepithelial lesion ([6]; 0.1% eye drop, four times a day, week 2, score 0-4 (Table 5)): 0.4 ± 0.2 score | Keratoepithelial lesion ([6]; 0.3% eye drop group, before instillation (baseline), score 0-4 (Table 5)): 3.0 ± 0.5 score | Keratoepithelial lesion ([6]; 0.3% eye drop, four times a day, week 1, score 0-4 (Table 5)): 0.5 ± 0.4 score | Keratoepithelial lesion ([6]; 0.3% eye drop, four times a day, week 2, score 0-4 (Table 5)): 0.1 ± 0.1 score
